Data on three molecules can be found in BindingDB's records for doi:10.1038/nchembio.614 (National Cancer Institute-Frederick, 2011).

Molecules are shown by their SMILES. Numbered stars: 1 amine (or outer) side, 2 acyl side, 3 side chain; on linkers, the order of the positions; unused ones are H or OH. Square brackets hold non-standard residues; d marks the D form. Peptide text beside a SMILES is read from it. ξ: configuration not given here. X3 = C[C@@H](OP(=O)(O)OCC[C@@H](O)CO)[C@H](N[*:1])C(=O)[*:2]; X20 = O=C([C@H](Cc1cncn1CC[C@@H](O)CO)N[*:1])[*:2]; X13 = COP(=O)(O)O[C@H](C)[C@H](N[*:1])C(=O)[*:2]; pT = C[C@@H](OP(=O)(O)O)[C@H](N)C(=O)O; ξP = O=C(O)C1CCCN1 Some results are limits rather than exact numbers.

Chain of Serine/threonine-protein kinase PLK1 (P53350 whole entry): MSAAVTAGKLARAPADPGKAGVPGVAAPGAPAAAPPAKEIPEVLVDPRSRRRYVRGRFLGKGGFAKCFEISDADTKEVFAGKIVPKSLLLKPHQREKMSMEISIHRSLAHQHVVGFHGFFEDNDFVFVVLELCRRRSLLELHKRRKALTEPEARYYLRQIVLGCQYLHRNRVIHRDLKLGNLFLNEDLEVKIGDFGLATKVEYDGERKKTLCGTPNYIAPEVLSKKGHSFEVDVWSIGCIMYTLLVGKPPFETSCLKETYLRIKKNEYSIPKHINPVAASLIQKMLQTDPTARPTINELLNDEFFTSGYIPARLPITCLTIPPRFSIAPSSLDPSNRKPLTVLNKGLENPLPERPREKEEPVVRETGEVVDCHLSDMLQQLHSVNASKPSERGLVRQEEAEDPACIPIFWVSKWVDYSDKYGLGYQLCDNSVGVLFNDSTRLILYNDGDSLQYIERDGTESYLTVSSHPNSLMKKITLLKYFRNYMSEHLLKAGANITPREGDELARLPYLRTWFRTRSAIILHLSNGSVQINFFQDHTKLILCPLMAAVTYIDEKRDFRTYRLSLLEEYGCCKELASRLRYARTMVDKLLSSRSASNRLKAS

For the test, the target named is Serine/threonine-protein kinase PLK1 (Homo sapiens, UniProt P53350). The test can be described thus: Inhibition Assay. The conditions noted are these: pH 8; 25 °C. The source says:
The evaluation of Plk1 PBD binding affinities of the synthetic compounds using an ELISA-based 96-well assay.
Turning to `COP(=O)(O)O[C@H](C)[C@H](NC(=O)[C@H](CO)NC(=O)[C@H](Cc1cnc[nH]1)NC(=O)[C@H](CC(C)C)NC(=O)C1CCCN1C(C)=O)C(N)=O` (stereo partly drawn) [Phosphodiester analog, 3a] (Ac-[ξP]LHS[X13]-NH2), the concentration for half-maximal inhibition (IC50) was > 200 µM.

For `CC(=O)N1CCCC1C(=O)N[C@@H](CC(C)C)C(=O)N[C@@H](Cc1cnc[nH]1)C(=O)N[C@@H](CO)C(=O)N[C@H](C(N)=O)[C@@H](C)OP(=O)(O)OCC[C@@H](O)CO` (stereo partly drawn) [Phosphodiester analog, 3b] (Ac-[ξP]LHS[X3]-NH2), the IC50 was > 200 µM.

Take `CC(=O)N1CCCC1C(=O)N[C@@H](CC(C)C)C(=O)N[C@@H](Cc1cncn1CC[C@@H](O)CO)C(=O)N[C@@H](CO)C(=O)N[C@H](C(N)=O)[C@@H](C)OP(=O)(O)O` (stereo partly drawn) [Phosphodiester analog, 4b] (Ac-[ξP]L[X20]S[pT]-NH2): the IC50 was > 200 µM.

What is called IC50 is the concentration at which inhibition is half-maximal.
